Data: patent US9409884B2 (Rigel Pharmaceuticals, Inc., priority 2012, dated 2016)

Target: AMPK
Assay: AMPK activation, enzyme-linked immunosorbent assay
Type: biochemical
Conditions: Table 13, compounds of Table 6
In short: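 AMPK activation by test compounds was measured by enzyme-linked immunosorbent assay.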

SMILES | EC50
N#Cc1ccc(CN2CCC(NC(=O)c3cc4cc(C(=O)N5CCN(Cc6cnn(-c7ccc(C#N)cc7)c6)CC5)ccc4o3)CC2)cc1 [Compound 6-77, N-(1-(4-cyanobenzyl)piperidin-4-yl)-5-(4-((1-(4-cyanophenyl)-1H-pyrazol-4-yl)methyl)piperazine-1-carbonyl)benzofuran-2-carboxamide] | < 100 nM
N#Cc1ccc(CN2CCC(NC(=O)c3cc4cc(C(=O)N5CCN(Cc6ccc(-n7cccn7)cc6)CC5)ccc4o3)CC2)cc1 [Compound 6-79, 5-(4-(4-(1H-pyrazol-1-yl)benzyl)piperazine-1-carbonyl)-N-(1-(4-cyanobenzyl)piperidin-4-yl)benzofuran-2-carboxamide] | < 100 nM
N#Cc1ccc(CN2CCC(NC(=O)c3cc4cc(C(=O)N5CCN(Cc6ccc(N7CCCC7)cc6)CC5)ccc4o3)CC2)cc1 [Compound 6-80, N-(1-(4-cyanobenzyl)piperidin-4-yl)-5-(4-(4-(pyrrolidin-1-yl)benzyl)piperazine-1-carbonyl)benzofuran-2-carboxamide] | < 100 nM
N#Cc1ccc(CN2CCC(NC(=O)c3cc4cc(C(=O)N5CCN(Cc6ccc(OC(F)(F)F)cc6)CC5)ccc4o3)CC2)cc1 [Compound 6-81, N-(1-(4-cyanobenzyl)piperidin-4-yl)-5-(4-(4-(trifluoromethoxy)benzyl)piperazine-1-carbonyl) benzofuran-2-carboxamide] | < 100 nM
N#Cc1ccc(CN2CCC(NC(=O)c3cc4cc(C(=O)N5CCN(Cc6ccc(-c7ccccn7)cc6)CC5)ccc4o3)CC2)cc1 [Compound 6-82, N-(1-(4-cyanobenzyl)piperidin-4-yl)-5-(4-(4-(pyridin-2-yl)benzyl)piperazine-1-carbonyl)benzofuran-2-carboxamide] | < 100 nM
N#Cc1ccc(CN2CCC(NC(=O)c3cc4cc(NC(=O)C5CCN(c6ccc(C(F)(F)F)cc6)CC5)ccc4o3)CC2)cc1 [Compound 6-83, N-(2-(1-(4-cyanobenzyl)piperidin-4-ylcarbamoyl)benzofuran-5-yl)-1-(4-(trifluoromethyl)phenyl) piperidine-4-carboxamide] | 1000 to 10000 nM
CS(=O)(=O)c1ccc(N2CCC(C(=O)Nc3ccc4oc(C(=O)NC5CCN(Cc6ccc(C#N)cc6)CC5)cc4c3)CC2)cc1 [Compound 6-84, N-(2-(1-(4-cyanobenzyl)piperidin-4-ylcarbamoyl)benzofuran-5-yl)-1-(4-(methylsulfonyl)phenyl) piperidine-4-carboxamide] | < 100 nM
CS(=O)(=O)c1ccc(C(=O)Nc2ccc3oc(C(=O)NC4CCN(Cc5ccc(C#N)cc5)CC4)cc3c2)cc1 [Compound 6-85, N-(1-(4-cyanobenzyl)piperidin-4-yl)-5-(4-(methylsulfonyl)benzamido) benzofuran-2-carboxamide] | 1000 to 10000 nM
N#Cc1ccc(CN2CCC(NC(=O)c3cc4cc(C(=O)N5CCN(c6ccc(F)cc6)CC5)ccc4o3)CC2)cc1 [Compound 6-86, N-(1-(4-cyanobenzyl)piperidin-4-yl)-5-(4-(4-fluorophenyl)piperazine-1-carbonyl)benzofuran-2-carboxamide] | < 100 nM
CS(=O)(=O)c1ccc(N2CCN(C(=O)c3ccc4oc(C(=O)NC5CCN(Cc6ccc(C#N)cc6)CC5)cc4c3)CC2)cc1 [Compound 6-87, N-(1-(4-cyanobenzyl)piperidin-4-yl)-5-(4-(4-(methylsulfonyl)phenyl)piperazine-1-carbonyl) benzofuran-2-carboxamide] | 100 to 1000 nM
N#Cc1ccc(CN2CCC(NC(=O)c3cc4cc(C(=O)NC5CCN(c6ccc(C#N)cc6)CC5)ccc4o3)CC2)cc1 [Compound 6-90, N2-(1-(4-cyanobenzyl)piperidin-4-yl)-N5-(1-(4-cyanophenyl)piperidin-4-yl)benzofuran-2,5-dicarboxamide] | < 100 nM
N#Cc1ccc(CN2CCC(NC(=O)c3cc4cc(C(=O)NC5CCN(Cc6ccn(-c7ccc(C#N)cc7)n6)CC5)ccc4o3)CC2)cc1 [Compound 6-91, N2-(1-(4-cyanobenzyl)piperidin-4-yl)-N5-(1-((1-(4-cyanophenyl)-1H-pyrazol-3-yl)methyl)piperidin-4-yl)benzofuran-2,5-dicarboxamide] | 1000 to 10000 nM
N#Cc1ccc(CN2CCC(NC(=O)c3cc4cc(C(=O)NC5CCN(Cc6ccc(-n7cccn7)cc6)CC5)ccc4o3)CC2)cc1 [Compound 6-92, N5-(1-(4-(lH-pyrazol-1-yl)benzyl)piperidin-4-yl)-N2-(1-(4-cyanobenzyl)piperidin-4-yl)benzofuran-2,5-dicarboxamide] | 100 to 1000 nM
N#Cc1ccc(CN2CCC(NC(=O)c3cc4cc(C(=O)NC5CCN(Cc6ccc(OC(F)(F)F)cc6)CC5)ccc4o3)CC2)cc1 [Compound 6-93, N2-(1-(4-cyanobcnzyl)piperidin-4-yl)-N5-(1-(4-(trifluoromethoxy)benzyl)piperidin-4-yl)benzofuran-2,5-dicarboxamide] | 100 to 1000 nM
COc1ccc(CN2CCC(NC(=O)c3cc4cc(C(=O)N5CCN(Cc6ccc(S(C)(=O)=O)cc6)CC5)ccc4o3)CC2)cc1 [Compound 6-94, N-(1-(4-methoxybenzyl)piperidin-4-yl)-5-(4-(4-(methylsulfonyl)benzyl)piperazine-1-carbonyl) benzofuran-2-carboxamide] | 100 to 1000 nM
CS(=O)(=O)c1ccc(CN2CCN(C(=O)c3ccc4oc(C(=O)NC5CCN(Cc6ccc(OC(F)(F)F)cc6)CC5)cc4c3)CC2)cc1 [Compound 6-95, 5-(4-(4-(methylsulfonyl)benzyl)piperazine-1-carbonyl)-N-(1-(4-(trifluoromethoxy)benzyl)piperidin-4-yl)benzofuran-2-carboxamide] | 100 to 1000 nM
COc1ccc(CN2CCC(NC(=O)c3cc4cc(C(=O)N5CCN(Cc6ccc(-n7cccn7)cc6)CC5)ccc4o3)CC2)cc1 [Compound 6-96, 5-(4-(4-(1H-pyrazol-1-yl)benzyl)piperazine-1-carbonyl)-N-(1-(4-methoxybenzyl)piperidin-4-yl)benzofuran-2-carboxamide] | < 100 nM
O=C(NC1CCN(Cc2ccc(OC(F)(F)F)cc2)CC1)c1cc2cc(C(=O)N3CCN(Cc4ccc(-n5cccn5)cc4)CC3)ccc2o1 [Compound 6-97, 5-(4-(4-(1H-pyrazol-1-yl)benzyl)piperazine-1-carbonyl)-N-(1-(4-(trifluoromcthoxy)benzyl)piperidin-4-yl)benzofuran-2-carboxamide] | < 100 nM
COc1cc(CN2CCC(NC(=O)c3cc4cc(C(=O)N5CCN(Cc6ccc(S(C)(=O)=O)cc6)CC5)ccc4o3)CC2)ccc1F [Compound 6-98, N-(1-(4-fluoro-3-methoxybenzyl)piperidin-4-yl)-5-(4-(4-(methylsulfonyl)benzyl)piperazine-1-carbonyl) benzofiiran-2-carboxamide] | 100 to 1000 nM
COc1cccc(CN2CCC(NC(=O)c3cc4cc(C(=O)N5CCN(Cc6ccc(S(C)(=O)=O)cc6)CC5)ccc4o3)CC2)c1 [Compound 6-99, N-(1-(3-methoxybenzyl)piperidin-4-yl)-5-(4-(4-(methylsulfonyl)benzyl)piperazine-1-carbonyl) benzofuran-2-carboxamide] | 1000 to 10000 nM
CS(=O)(=O)c1ccc(CN2CCN(C(=O)c3ccc4oc(C(=O)NC5CCN(Cc6ccc(OC(F)F)cc6)CC5)cc4c3)CC2)cc1 [Compound 6-101, N-(1-(4-(difluoromethoxy)benzyl)piperidin-4-yl)-5-(4-(4-(methylsulfonyl)benzyl)piperazine-1-carbonyl) benzofuran-2-carboxamide] | 100 to 1000 nM
